Laboratory results taken from the NIST ThermoML archive (doi:10.1021/je900732r).
“And” between values parts separate entries of the source, which are not always exact repeats. Equal values may be shown once.

Experiments:
[1] = Liquid; for mass density: 101 kPa
[2] = mn = molality of the nth substance listed, in mol/kg; conditions: 101 kPa, Liquid

C[S+](C)[O-] [dimethyl sulfoxide]
[1]
Conditions | mass density
293.15 K | 1100.22 kg/m3 and 1100.23 kg/m3
298.15 K | 1095.19 kg/m3 and 1095.2 kg/m3
303.15 K | 1090.17 kg/m3 and 1090.18 kg/m3
313.15 K | 1080.12 kg/m3 and 1080.12 kg/m3
323.15 K | 1070.08 kg/m3 and 1070.08 kg/m3
333.15 K | 1060.04 kg/m3 and 1060.03 kg/m3

CO [methanol]
[1]
Conditions | mass density
283.15 K | 800.55 kg/m3 and 800.541 kg/m3 and 800.548 kg/m3
288.15 K | 795.872 kg/m3 and 795.866 kg/m3 and 795.857 kg/m3
293.15 K | 791.172 kg/m3 and 791.169 kg/m3 and 791.162 kg/m3
298.15 K | 786.46 kg/m3 and 786.452 kg/m3 and 786.464 kg/m3
303.15 K | 781.742 kg/m3 and 781.733 kg/m3 and 781.722 kg/m3
308.15 K | 776.992 kg/m3 and 776.979 kg/m3 and 776.978 kg/m3
313.15 K | 772.214 kg/m3 and 772.189 kg/m3 and 772.2 kg/m3

Conditions | speed of sound [m/s]
[1], 298.15 K, 101.33 kPa, Pulse-echo method | 1101.2

CO [methanol] + O=S(=O)([O-])C(F)(F)F.O=S(=O)([O-])C(F)(F)F.[Cu+2]
[2], m2 = 0
Conditions | mass density [kg/m3]
283.15 K | 800.548
288.15 K | 795.857
293.15 K | 791.162
298.15 K | 786.452
303.15 K | 781.722
308.15 K | 776.978
313.15 K | 772.2

CO [methanol] + [Co+2].[O-][Cl+3]([O-])([O-])[O-].[O-][Cl+3]([O-])([O-])[O-]
[2], m2 = 0
Conditions | mass density [kg/m3]
283.15 K | 800.55
288.15 K | 795.872
293.15 K | 791.172
298.15 K | 786.464
303.15 K | 781.742
308.15 K | 776.992
313.15 K | 772.214

CO [methanol] + [Ni+2].[O-][Cl+3]([O-])([O-])[O-].[O-][Cl+3]([O-])([O-])[O-]
[2], m2 = 0
Conditions | mass density [kg/m3]
283.15 K | 800.541
288.15 K | 795.866
293.15 K | 791.169
298.15 K | 786.46
303.15 K | 781.733
308.15 K | 776.979
313.15 K | 772.189

[Ni+2].[O-][Cl+3]([O-])([O-])[O-].[O-][Cl+3]([O-])([O-])[O-] [nickel perchlorate] + C[S+](C)[O-]
mass density [kg/m3], [2]
Conditions | 293.15 K | 298.15 K | 303.15 K | 313.15 K | 323.15 K | 333.15 K
m1 = 0.01259 | 1102.91 | 1097.89 | 1092.88 | 1082.85 | 1072.82 | 1062.8
m1 = 0.01738 | 1103.94 | 1098.92 | 1093.91 | 1083.88 | 1073.87 | 1063.85
m1 = 0.02515 | 1105.61 | 1100.6 | 1095.59 | 1085.57 | 1075.56 | 1065.56
m1 = 0.03153 | 1106.98 | 1101.97 | 1096.96 | 1086.96 | 1076.96 | 1066.96
m1 = 0.03816 | 1108.41 | 1103.4 | 1098.4 | 1088.4 | 1078.41 | 1068.42
m1 = 0.051 | 1111.18 | 1106.18 | 1101.18 | 1091.2 | 1081.23 | 1071.27
m1 = 0.06341 | 1113.88 | 1108.88 | 1103.89 | 1093.92 | 1083.97 | 1074.01
m1 = 0.07675 | 1116.78 | 1111.79 | 1106.81 | 1096.86 | 1086.92 | 1076.99
m1 = 0.08797 | 1119.23 | 1114.24 | 1109.27 | 1099.34 | 1089.42 | 1079.5
m1 = 0.1004 | 1121.96 | 1116.98 | 1112.02 | 1102.1 | 1092.19 | 1082.3
m1 = 0.1126 | 1124.63 | 1119.67 | 1114.7 | 1104.8 | 1094.91 | 1085.03
m1 = 0.1251 | 1127.4 | 1122.43 | 1117.49 | 1107.6 | 1097.73 | 1087.86

[O-][Cl+3]([O-])([O-])[O-].[O-][Cl+3]([O-])([O-])[O-].[Zn+2] [zinc perchlorate] + C[S+](C)[O-]
mass density [kg/m3], [2]
Conditions | 293.15 K | 298.15 K | 303.15 K | 313.15 K | 323.15 K | 333.15 K
m1 = 0.0168 | 1103.88 | 1098.86 | 1093.85 | 1083.82 | 1073.81 | 1063.78
m1 = 0.02409 | 1105.47 | 1100.46 | 1095.45 | 1085.43 | 1075.43 | 1065.41
m1 = 0.02918 | 1106.59 | 1101.58 | 1096.56 | 1086.56 | 1076.56 | 1066.55
m1 = 0.03465 | 1107.79 | 1102.78 | 1097.78 | 1087.77 | 1077.77 | 1067.77
m1 = 0.05104 | 1111.38 | 1106.39 | 1101.39 | 1091.4 | 1081.43 | 1071.45
m1 = 0.06794 | 1115.12 | 1110.13 | 1105.14 | 1095.18 | 1085.22 | 1075.26
m1 = 0.08574 | 1119.08 | 1114.1 | 1109.12 | 1099.17 | 1089.23 | 1079.3
m1 = 0.1022 | 1122.78 | 1117.8 | 1112.83 | 1102.91 | 1092.99 | 1083.08
m1 = 0.119 | 1126.55 | 1121.58 | 1116.62 | 1106.7 | 1096.8 | 1086.9
m1 = 0.1435 | 1132.09 | 1127.14 | 1122.19 | 1112.3 | 1102.43 | 1092.57
m1 = 0.1684 | 1137.8 | 1132.85 | 1127.91 | 1118.05 | 1108.21 | 1098.37
